ChEMBL document CHEMBL4385628, “New insights into the binding mode of pyridine-3-carboxamide inhibitors of E. coli DNA gyrase” (Bioorg Med Chem, 2019)
≈ marks a conversion by molar mass, not a printed value. Calls of active or inactive are those of the source. No cut-off for these calls is given here.

Experiments:
DNA gyrase = DNA gyrase (Escherichia coli, UniProt P0AES4+P0AES6); assay: Inhibition of Escherichia coli DNA gyrase(A2B2 tetramer) preincubated for 5 mins followed by ATP addition and measured once per minute for 20 to 30 minutes by ATPase assay; format: protein-complex assay
[1] = biological target: DNA topoisomerase 2-alpha (Homo sapiens) (UniProt P11388); assay: Inhibition of human topoisomerase-2alpha up to 100 uM
[2] = Half life in mouse liver microsomes; format: ADME, Microsome
[3] = Apparent permeability across apical to basolateral side in human Caco2 cells; format: ADME, cell-based; settings: Caco-2
[4] = Half life in human liver microsomes; format: ADME, Microsome
Staphylococcus aureus = assay: Antibacterial activity against Staphylococcus aureus ATCC 29213 assessed as reduction in microbial growth by CLSI based broth microdilution method; format: functional
Escherichia coli = assay: Antibacterial activity against Escherichia coli ATCC 25922 assessed as reduction in microbial growth by CLSI based broth microdilution method; format: functional
[5] = Aqueous solubility of compound; format: physicochemical
[6] = Efflux ratio of apparent permeability across basolateral to apical over apical to basolateral side in human Caco2 cells; format: ADME, cell-based; settings: Caco-2
[7] = Protein binding in human plasma; format: ADME, cell-free; settings: read-out: PPB (converted)

Chain of DNA topoisomerase 2-alpha (Homo sapiens) (P11388 whole entry): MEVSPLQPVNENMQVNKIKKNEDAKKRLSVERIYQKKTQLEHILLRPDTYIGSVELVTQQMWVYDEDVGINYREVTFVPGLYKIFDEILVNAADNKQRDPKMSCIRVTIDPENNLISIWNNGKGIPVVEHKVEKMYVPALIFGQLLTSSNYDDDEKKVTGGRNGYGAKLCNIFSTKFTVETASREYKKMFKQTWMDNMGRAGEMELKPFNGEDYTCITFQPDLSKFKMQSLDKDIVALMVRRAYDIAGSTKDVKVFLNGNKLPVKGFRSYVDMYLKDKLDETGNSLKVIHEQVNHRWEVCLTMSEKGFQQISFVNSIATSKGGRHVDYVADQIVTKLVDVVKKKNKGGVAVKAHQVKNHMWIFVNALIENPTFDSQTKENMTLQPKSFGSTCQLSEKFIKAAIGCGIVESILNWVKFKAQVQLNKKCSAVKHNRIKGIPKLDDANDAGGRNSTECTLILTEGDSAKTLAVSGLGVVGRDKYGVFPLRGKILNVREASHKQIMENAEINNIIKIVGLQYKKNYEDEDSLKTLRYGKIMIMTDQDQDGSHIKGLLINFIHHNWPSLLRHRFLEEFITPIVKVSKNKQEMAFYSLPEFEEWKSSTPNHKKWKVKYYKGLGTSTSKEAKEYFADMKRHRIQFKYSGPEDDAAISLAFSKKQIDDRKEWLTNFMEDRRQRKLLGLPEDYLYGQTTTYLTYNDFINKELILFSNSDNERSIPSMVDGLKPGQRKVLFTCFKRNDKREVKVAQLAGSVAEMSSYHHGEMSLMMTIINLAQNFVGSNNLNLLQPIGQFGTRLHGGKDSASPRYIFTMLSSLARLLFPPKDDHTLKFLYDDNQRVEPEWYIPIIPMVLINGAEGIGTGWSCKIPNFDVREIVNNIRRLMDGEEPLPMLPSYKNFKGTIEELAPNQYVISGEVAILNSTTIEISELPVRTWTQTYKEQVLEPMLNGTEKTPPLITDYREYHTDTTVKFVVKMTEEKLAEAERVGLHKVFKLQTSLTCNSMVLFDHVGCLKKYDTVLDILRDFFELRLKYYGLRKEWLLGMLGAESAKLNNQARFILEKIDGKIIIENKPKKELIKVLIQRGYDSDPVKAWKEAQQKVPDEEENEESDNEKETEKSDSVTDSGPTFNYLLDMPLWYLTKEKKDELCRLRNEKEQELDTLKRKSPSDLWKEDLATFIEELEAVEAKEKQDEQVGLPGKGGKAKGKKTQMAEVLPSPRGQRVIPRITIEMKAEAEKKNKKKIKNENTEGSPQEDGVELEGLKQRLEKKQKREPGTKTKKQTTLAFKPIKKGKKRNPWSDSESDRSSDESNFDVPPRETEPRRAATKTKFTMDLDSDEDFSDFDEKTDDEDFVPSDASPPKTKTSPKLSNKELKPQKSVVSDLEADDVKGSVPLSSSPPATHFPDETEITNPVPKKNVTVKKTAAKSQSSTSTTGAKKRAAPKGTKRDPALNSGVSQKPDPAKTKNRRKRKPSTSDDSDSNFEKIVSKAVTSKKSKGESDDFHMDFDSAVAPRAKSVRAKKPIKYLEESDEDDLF

With `CCNC(=O)Nc1cc(-n2cccn2)c(C(=O)Nc2cccnc2)cn1` the IC50 (DNA gyrase) was 86 nM, the inhibition [1] was “inactive” and the half-life [2] was 24 min. It also gave a Papp A→B [3] of 1.23 ×10⁻⁶ cm/s, a half-life [4] of 128 min and an MIC (Staphylococcus aureus) of 64 µg/mL. For the same compound, the MIC (Escherichia coli) was > 64 µg/mL, the solubility [5] was 32.6 µM (≈ 11.5 µg/mL) and the efflux ratio [6] was 30.8. It also gave a fraction unbound [7] of 0.095.
For `CCNC(=O)Nc1cc(N2CCCC2)c(C(=O)Nc2cccnc2)cn1`, the IC50 (DNA gyrase) was 120 nM, the MIC (Staphylococcus aureus) was 64 µg/mL and the MIC (Escherichia coli) was > 64 µg/mL.
For `CCNC(=O)Nc1cc(-n2nccn2)c(C(=O)Nc2cccnc2)cn1`, the IC50 (DNA gyrase) was 150 nM, the MIC (Staphylococcus aureus) was 64 µg/mL and the MIC (Escherichia coli) was > 64 µg/mL.
In the case of `CCNC(=O)Nc1cc(N2CCC(N)C2)c(C(=O)Nc2cccnc2)cn1` (stereo not given), the IC50 (DNA gyrase) is reported as 89 nM, the inhibition [1] is reported as “inactive” and the Papp A→B [3] is reported as 4.02 ×10⁻⁶ cm/s. The half-life [4] was 290 min, the MIC (Staphylococcus aureus) was > 64 µg/mL and the MIC (Escherichia coli) was > 64 µg/mL. For the same compound, the solubility [5] was 88.5 µM (≈ 32.7 µg/mL), the efflux ratio [6] was 2.78 and the fraction unbound [7] was 0.498.
Work on `CCNC(=O)Nc1cc(-n2ccnn2)c(C(=O)Nc2cccnc2)cn1` yielded an IC50 (DNA gyrase) of 200 nM.
For `CCNC(=O)Nc1cc(-n2cncn2)c(C(=O)Nc2cccnc2)cn1`, the IC50 (DNA gyrase) was 82 nM, the MIC (Staphylococcus aureus) was > 64 µg/mL and the MIC (Escherichia coli) was > 64 µg/mL.
For `CCNC(=O)Nc1cc(Nc2ccc(OC)cc2)c(C(=O)Nc2cccnc2)cn1`, the IC50 (DNA gyrase) was 19 nM, the inhibition [1] was “inactive” and the Papp A→B [3] was 11.8 ×10⁻⁶ cm/s. The half-life [4] was 20 min, the MIC (Staphylococcus aureus) was 4 µg/mL and the MIC (Escherichia coli) was > 64 µg/mL. For the same compound, the solubility [5] was 2.4 µM (≈ 0.975 µg/mL), the efflux ratio [6] was 2.82 and the fraction unbound [7] was 0.028.
For `CCNC(=O)Nc1cc(Nc2cccc(C)c2)c(C(=O)Nc2cccc(C)c2)cn1`, the half-life [2] was 58 min, the Papp A→B [3] was < 2.67 ×10⁻⁶ cm/s and the half-life [4] was 46 min. The solubility [5] was 4.26 µM (≈ 1.72 µg/mL) and the fraction unbound [7] was 0.001.
For `CCNC(=O)Nc1cc(-n2cc(Br)cn2)c(C(=O)Nc2cccnc2)cn1`, the IC50 (DNA gyrase) was 37 nM, the inhibition [1] was “inactive” and the MIC (Staphylococcus aureus) was 16 µg/mL. The MIC (Escherichia coli) was > 64 µg/mL.
In the case of `CCNC(=O)Nc1cc(Nc2ccccc2O)c(C(=O)Nc2cccnc2)cn1`, the IC50 (DNA gyrase) is reported as 410 nM, the MIC (Staphylococcus aureus) is reported as > 64 µg/mL and the MIC (Escherichia coli) is reported as > 64 µg/mL.
